According to patent US10294202B2, “Pyrrolidinones as herbicides” (FMC Corporation, priority 2013, dated 2019):

Columns and labels:
[1] = test system: velvetleaf; assay: Test A pre-/postemergence herbicide test; assay type: in vivo, Abutilon theophrasti
In short: (§1)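 Both application timings used compounds in a non-phytotoxic solvent plus surfactant. Pre-emergence: soil sprayed directly after seeding into loam/sand. Post-emergence: foliage of 2–10 cm seedlings (1–2 leaves) sprayed. Injury rated ~10 days later, 0–100.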

[2] = test system: ducksalad; assay: Test B flooded paddy test; assay type: in vivo, Heteranthera limosa; conditions: Flood, scale of 0 to 100 where 0 is no effect and 100 is complete control
Experimental: (§2) Plant species in the flooded paddy test selected from rice (Oryza sativa), sedge, umbrella (small-flower umbrella sedge, Cyperus difformis), ducksalad (Heteranthera limosa), and barnyardgrass (Echinochloa crus-galli) were grown to the 2-leaf stage for testing. At time of treatment, test pots were flooded to 3 cm above the soil surface, treated by application of test compounds directly to the paddy water, and then maintained at that water depth for the duration of the test. Treated plants and controls were maintained in a greenhouse for 13 to 15 days, after which time all species were compared to controls and visually evaluated. Plant response ratings, summarized in Table B, are based on a scale of 0 to 100 where 0 is no effect and 100 is complete control. A dash (-) response means no test result.

[3] = test system: wheat; assay: Test A pre-/postemergence herbicide test; assay type: in vivo, Triticum aestivum
In short: as §1

[4] = test system: crabgrass, large; assay: Test A pre-/postemergence herbicide test; assay type: in vivo, Digitaria sanguinalis
In short: as §1

[5] = test system: sedge, umbrella; assay: Test B flooded paddy test; assay type: in vivo, Cyperus difformis; conditions: Flood, scale of 0 to 100 where 0 is no effect and 100 is complete control
In short: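 Plants were grown to the 2-leaf stage, then pots were flooded to 3 cm above the soil and compound was applied directly into the paddy water, with that depth held throughout. After 13 to 15 days in a greenhouse, injury was rated visually against untreated controls on a 0 to 100 scale (100 = complete control).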

[6] = test system: pigweed; assay: Test A pre-/postemergence herbicide test; assay type: in vivo, Amaranthus retroflexus
In short: as §1

[7] = test system: rice; assay: Test B flooded paddy test; assay type: in vivo, Oryza sativa; conditions: Flood, scale of 0 to 100 where 0 is no effect and 100 is complete control
Experimental: as §2

[8] = test system: barnyardgrass; assay: Test A pre-/postemergence herbicide test; assay type: in vivo, Echinochloa crus-galli
In short: as §1

[9] = test system: morningglory; assay: Test A pre-/postemergence herbicide test; assay type: in vivo, Ipomoea spp.
In short: as §1

[10] = test system: corn; assay: Test A pre-/postemergence herbicide test; assay type: in vivo, Zea mays
In short: as §1

[11] = test system: giant foxtail; assay: Test A pre-/postemergence herbicide test; assay type: in vivo, Setaria faberii
In short: as §1

[12] = test system: barnyardgrass; assay: Test B flooded paddy test; assay type: in vivo, Echinochloa crus-galli; conditions: Flood, scale of 0 to 100 where 0 is no effect and 100 is complete control
Experimental: as §2

[13] = Postemergence, 125 g ai/ha, 0 to 100 scale, 0 is no effect, 100 is complete control
[14] = Postemergence, 500 g ai/ha, 0 to 100 scale (0 no effect, 100 complete control)
[15] = Preemergence, 125 g ai/ha, 0 to 100 scale where 0 is no effect and 100 is complete control
[16] = preemergence, 500 g ai/ha, 0 to 100 scale, 0 is no effect and 100 is complete control
[17] = Postemergence, 125 g ai/ha, 0 to 100 scale, 0 no effect, 100 complete control
[18] = Preemergence, 125 g ai/ha, visual rating on 0 to 100 scale (0 no effect, 100 complete control)
[19] = preemergence, 500 g ai/ha, 0 to 100 scale
[20] = 125 g ai/ha, visual rating, 0 to 100 scale, 0 no effect, 100 complete control, approximately 10 days, preemergence

O=C1NCC(c2ccc(C(F)(F)F)cc2F)C1C(=O)Nc1ccccc1C(F)(F)F (racemic) [Compound 261]
Plant response rating, Velvetleaf [1, 13]: 0 | Plant response rating, Velvetleaf [1, 14]: 30 | Plant response rating, Velvetleaf [1, 15]: 0 | Plant response rating, Velvetleaf [1, 16]: 0 | Plant response rating, Ducksalad ([2]; 1000 g ai/ha): 90 | Plant response rating, Wheat [3, 13]: 0 | Plant response rating, Wheat [3, 14]: 0 | Plant response rating, Wheat [3, 15]: 0 | Plant response rating, Wheat [3, 16]: 0 | Plant response rating, Crabgrass, Large [4, 13]: 70 | Plant response rating, Crabgrass, Large [4, 14]: 80 | Plant response rating, Crabgrass, Large [4, 15]: 80 | Plant response rating, Crabgrass, Large [4, 16]: 90 | Plant response rating, Sedge, Umbrella ([5]; 1000 g ai/ha): 0 | Plant response rating, Pigweed [6, 13]: 0 | Plant response rating, Pigweed [6, 14]: 40 | Plant response rating, Pigweed [6, 15]: 0 | Plant response rating, Pigweed [6, 16]: 0 | Plant response rating, Rice ([7]; 1000 g ai/ha): 0 | Plant response rating, Barnyardgrass [8, 13]: 0 | Plant response rating, Barnyardgrass [8, 14]: 50 | Plant response rating, Barnyardgrass [8, 15]: 0 | Plant response rating, Barnyardgrass [8, 16]: 0 | Plant response rating, Morningglory [9, 13]: 0 | Plant response rating, Morningglory [9, 14]: 0 | Plant response rating, Morningglory [9, 15]: 0 | Plant response rating, Morningglory [9, 16]: 0 | Plant response rating, Corn [10, 13]: 0 | Plant response rating, Corn [10, 14]: 0 | Plant response rating, Corn [10, 15]: 0 | Plant response rating, Corn [10, 16]: 0 | Plant response rating, Foxtail, Giant [11, 13]: 0 | Plant response rating, Foxtail, Giant [11, 14]: 60 | Plant response rating, Foxtail, Giant [11, 15]: 10 | Plant response rating, Foxtail, Giant [11, 16]: 70 | Plant response rating, Barnyardgrass ([12]; 1000 g ai/ha): 0

O=C1NCC(c2cc(F)c(F)cc2F)C1C(=O)Nc1ccccc1F (stereo not shown) [Compound 51]
Plant response rating, Velvetleaf [1, 17]: 0 | Plant response rating, Velvetleaf [1, 14]: 0 | Velvetleaf plant response rating [1, 18]: 0 | Plant response rating, Velvetleaf [1, 19]: 0 | Plant response rating, Ducksalad ([2]; 250 g ai/ha): 80 | Plant response rating, Wheat [3, 17]: 0 | Plant response rating, Wheat [3, 14]: 0 | Wheat plant response rating [3, 18]: 0 | Plant response rating, Wheat [3, 19]: 0 | Plant response rating, Crabgrass, Large [4, 17]: 20 | Plant response rating, Crabgrass, Large [4, 14]: 80 | Crabgrass, Large plant response rating [4, 18]: 90 | Plant response rating, Crabgrass, Large [4, 19]: 90 | Plant response rating, Sedge, Umbrella ([5]; 250 g ai/ha): 45 | Plant response rating, Pigweed [6, 17]: 0 | Plant response rating, Pigweed [6, 14]: 0 | Pigweed plant response rating [6, 18]: 0 | Plant response rating, Pigweed [6, 19]: 0 | Plant response rating, Rice ([7]; 250 g ai/ha): 15 | Plant response rating, Barnyardgrass [8, 17]: 0 | Plant response rating, Barnyardgrass [8, 14]: 20 | Barnyardgrass plant response rating [8, 18]: 0 | Plant response rating, Barnyardgrass ([8]; preemergence, 500 g ai/ha, 0 to 100 scale (0 no effect, 100 complete control)): 0 | Plant response rating, Morningglory [9, 17]: 0 | Plant response rating, Morningglory [9, 14]: 0 | Morningglory plant response rating [9, 18]: 0 | Plant response rating, Morningglory [9, 19]: 0 | Plant response rating, Corn [10, 17]: 0 | Plant response rating, Corn [10, 14]: 0 | Corn plant response rating [10, 18]: 0 | Plant response rating, Corn [10, 19]: 0 | Plant response rating, Foxtail, Giant [11, 17]: 0 | Plant response rating, Foxtail, Giant [11, 14]: 30 | Foxtail, Giant plant response rating [11, 18]: 30 | Plant response rating, Foxtail, Giant [11, 19]: 90 | Plant response rating, Barnyardgrass ([12]; 250 g ai/ha): 20

COc1cc(C2CNC(=O)C2C(=O)Nc2ccccc2C(F)(F)F)ccc1F (racemic) [Compound 196]
Plant response rating, Velvetleaf [1, 20]: 0 | Plant response rating, Velvetleaf [1, 13]: 0 | Velvetleaf plant response rating (0 to 100 scale, 0 is no effect, 100 is complete control) ([1]; Postemergence, 500 g ai/ha): 0 | Plant response rating, Velvetleaf [1, 16]: 0 | Plant response rating, Ducksalad ([2]; 250 g ai/ha): 0 | Plant response rating, Ducksalad ([2]; 1000 g ai/ha): 90 | Plant response rating, Wheat [3, 20]: 0 | Plant response rating, Wheat [3, 13]: 0 | Wheat plant response rating (0 to 100 scale, 0 is no effect, 100 is complete control) ([3]; Postemergence, 500 g ai/ha): 0 | Plant response rating, Wheat [3, 16]: 0 | Plant response rating, Crabgrass, Large [4, 20]: 90 | Plant response rating, Crabgrass, Large [4, 13]: 70 | Crabgrass, Large plant response rating (0 to 100 scale, 0 is no effect, 100 is complete control) ([4]; Postemergence, 500 g ai/ha): 80 | Plant response rating, Crabgrass, Large [4, 16]: 100 | Plant response rating, Sedge, Umbrella ([5]; 250 g ai/ha): 0 | Plant response rating, Sedge, Umbrella ([5]; 1000 g ai/ha): 0 | Plant response rating, Pigweed [6, 20]: 0 | Plant response rating, Pigweed [6, 13]: 0 | Pigweed plant response rating (0 to 100 scale, 0 is no effect, 100 is complete control) ([6]; Postemergence, 500 g ai/ha): 0 | Plant response rating, Pigweed [6, 16]: 0 | Plant response rating, Rice ([7]; 250 g ai/ha): 0 | Plant response rating, Rice ([7]; 1000 g ai/ha): 0 | Plant response rating, Barnyardgrass [8, 20]: 0 | Plant response rating, Barnyardgrass [8, 13]: 30 | Barnyardgrass plant response rating (0 to 100 scale, 0 is no effect, 100 is complete control) ([8]; Postemergence, 500 g ai/ha): 80 | Plant response rating, Barnyardgrass [8, 16]: 70 | Plant response rating, Morningglory [9, 20]: 0 | Plant response rating, Morningglory [9, 13]: 0 | Morningglory plant response rating (0 to 100 scale, 0 is no effect, 100 is complete control) ([9]; Postemergence, 500 g ai/ha): 0 | Plant response rating, Morningglory [9, 16]: 0 | Plant response rating, Corn [10, 20]: 0 | Plant response rating, Corn [10, 13]: 0 | Corn plant response rating (0 to 100 scale, 0 is no effect, 100 is complete control) ([10]; Postemergence, 500 g ai/ha): 0 | Plant response rating, Corn [10, 16]: 0 | Plant response rating, Foxtail, Giant [11, 20]: 80 | Plant response rating, Foxtail, Giant [11, 13]: 20 | Foxtail, Giant plant response rating (0 to 100 scale, 0 is no effect, 100 is complete control) ([11]; Postemergence, 500 g ai/ha): 70 | Plant response rating, Foxtail, Giant [11, 16]: 90 | Plant response rating, Barnyardgrass ([12]; 250 g ai/ha): 0 | Plant response rating, Barnyardgrass ([12]; 1000 g ai/ha): 20
